Test results: ChEMBL document CHEMBL5226342, “Novel Reversible-Binding PET Ligands for Imaging Monoacylglycerol Lipase Based on the Piperazinyl Azetidine Scaffold” (J Med Chem, 2021)
Calls of active or inactive are those of the source. The calls are words filed in the database; no cut-off is given here.

Columns and labels:
[1] = biological target: T1, Neutral cholesterol ester hydrolase 1 (Mus musculus) (UniProt Q8BLF1); test: Displacement of FP-rhodamine from KIAA1363 in mouse brain membrane fraction preincubated for 30 mins followed by FP-rhodhamine addition for 10 mins by Activity-Based Protein Profiling analysis; assay type: cell membranes; conditions: time 40.0 min
T1 sequence (whole entry): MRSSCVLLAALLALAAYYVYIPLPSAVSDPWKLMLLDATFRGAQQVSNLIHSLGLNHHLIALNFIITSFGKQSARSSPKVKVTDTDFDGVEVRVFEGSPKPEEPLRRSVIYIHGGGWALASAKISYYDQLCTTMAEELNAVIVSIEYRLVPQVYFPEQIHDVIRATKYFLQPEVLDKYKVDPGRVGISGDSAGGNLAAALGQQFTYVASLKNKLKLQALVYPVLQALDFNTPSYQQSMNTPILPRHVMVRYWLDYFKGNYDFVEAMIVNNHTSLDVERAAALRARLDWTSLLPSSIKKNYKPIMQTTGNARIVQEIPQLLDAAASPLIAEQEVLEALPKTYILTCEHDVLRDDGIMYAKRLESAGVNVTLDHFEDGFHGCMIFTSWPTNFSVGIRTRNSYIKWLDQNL

[2] = biological target: T2, Lysophosphatidylserine lipase ABHD12 (Mus musculus) (UniProt Q99LR1); test: Displacement of FP-rhodamine from ABHD12 in mouse brain membrane fraction preincubated for 30 mins followed by FP-rhodhamine addition for 10 mins by Activity-Based Protein Profiling analysis; assay type: cell membranes; conditions: time 40.0 min
T2 sequence (whole entry): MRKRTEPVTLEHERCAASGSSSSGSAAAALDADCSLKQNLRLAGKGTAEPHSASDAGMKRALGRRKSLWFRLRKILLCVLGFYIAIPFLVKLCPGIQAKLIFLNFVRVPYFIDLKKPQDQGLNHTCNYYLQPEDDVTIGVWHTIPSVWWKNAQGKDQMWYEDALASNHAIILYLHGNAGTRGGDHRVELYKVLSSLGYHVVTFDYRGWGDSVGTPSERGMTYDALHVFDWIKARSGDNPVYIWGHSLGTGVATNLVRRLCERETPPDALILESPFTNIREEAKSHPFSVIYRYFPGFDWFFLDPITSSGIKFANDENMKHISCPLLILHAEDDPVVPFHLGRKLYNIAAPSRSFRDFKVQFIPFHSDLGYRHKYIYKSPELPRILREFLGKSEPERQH

[3] = biological target: T3, Fatty-acid amide hydrolase 1 (Mus musculus) (UniProt O08914); test: Displacement of FP-rhodamine from FAAH in mouse brain membrane fraction preincubated for 30 mins followed by FP-rhodhamine addition for 10 mins by Activity-Based Protein Profiling analysis; assay type: cell membranes; conditions: time 40.0 min
T3 sequence (whole entry): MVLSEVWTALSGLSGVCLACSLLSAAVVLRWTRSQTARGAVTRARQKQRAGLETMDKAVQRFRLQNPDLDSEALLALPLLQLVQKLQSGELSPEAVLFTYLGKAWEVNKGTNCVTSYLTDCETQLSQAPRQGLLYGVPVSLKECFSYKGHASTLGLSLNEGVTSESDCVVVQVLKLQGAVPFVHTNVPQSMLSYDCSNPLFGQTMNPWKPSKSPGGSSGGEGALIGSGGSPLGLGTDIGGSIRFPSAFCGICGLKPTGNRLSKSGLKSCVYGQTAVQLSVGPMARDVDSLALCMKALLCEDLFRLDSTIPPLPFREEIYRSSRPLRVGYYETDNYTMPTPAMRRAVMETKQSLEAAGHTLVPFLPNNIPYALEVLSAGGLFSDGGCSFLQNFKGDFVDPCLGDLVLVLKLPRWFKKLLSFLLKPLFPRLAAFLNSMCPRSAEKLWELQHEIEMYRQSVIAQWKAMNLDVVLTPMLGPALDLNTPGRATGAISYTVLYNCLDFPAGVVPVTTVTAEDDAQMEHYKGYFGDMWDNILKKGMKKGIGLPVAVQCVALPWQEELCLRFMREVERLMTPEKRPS

[4] = biological target: T4, Monoacylglycerol lipase ABHD6 (Mus musculus) (UniProt Q8R2Y0); test: Displacement of FP-rhodamine from ABHD6 in mouse brain membrane fraction preincubated for 30 mins followed by FP-rhodhamine addition for 10 mins by Activity-Based Protein Profiling analysis; assay type: cell membranes; conditions: time 40.0 min
T4 sequence (whole entry): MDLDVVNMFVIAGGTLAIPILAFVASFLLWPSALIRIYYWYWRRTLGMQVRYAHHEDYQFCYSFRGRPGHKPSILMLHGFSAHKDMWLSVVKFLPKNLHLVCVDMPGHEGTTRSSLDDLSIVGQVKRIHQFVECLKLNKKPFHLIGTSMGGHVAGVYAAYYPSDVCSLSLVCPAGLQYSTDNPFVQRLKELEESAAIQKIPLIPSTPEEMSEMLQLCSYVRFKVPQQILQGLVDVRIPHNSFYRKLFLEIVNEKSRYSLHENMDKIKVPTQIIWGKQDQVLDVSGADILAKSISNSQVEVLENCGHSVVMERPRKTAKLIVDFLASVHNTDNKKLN

[5] = Lipophilicity, logD of the compound by shake flask method; assay type: physicochemical; conditions: octanol/water
[6] = Drug uptake in iv dosed Sprague-Dawley rat cerebral cortex measured for 90 mins by PET imaging based analysis; assay type: ADME, organism-based; conditions: in vivo, 1.5 h
[7] = Drug uptake in iv dosed Sprague-Dawley rat striatum measured for 90 mins by PET imaging based analysis; assay type: ADME, organism-based; conditions: in vivo, 1.5 h
[8] = Drug uptake in iv dosed Sprague-Dawley rat hippocampus measured for 90 mins by PET imaging based analysis; assay type: ADME, organism-based; conditions: in vivo, 1.5 h
[9] = Drug uptake in iv dosed Sprague-Dawley rat cerebellum measured for 90 mins by PET imaging based analysis; assay type: ADME, organism-based; conditions: in vivo, 1.5 h
[10] = Drug uptake in iv dosed Sprague-Dawley rat pons measured for 90 mins by PET imaging based analysis; assay type: ADME, organism-based; conditions: in vivo, 1.5 h
[11] = Drug uptake in mouse brain treated with MAGL inhibitor, JNJ-42226314 at 15 mins post-drug administration by PET imaging based analysis; assay type: ADME, tissue-based; conditions: in vivo, 0.25 h
[12] = Drug uptake in iv dosed rhesus monkey brain by PET imaging based analysis; assay type: ADME, organism-based, Macaca mulatta; conditions: in vivo
[13] = Drug uptake in iv dosed rhesus monkey cortex by PET imaging based analysis; assay type: ADME, organism-based, Macaca mulatta; conditions: in vivo
[14] = Drug uptake in iv dosed rhesus monkey cerebellum by PET imaging based analysis; assay type: ADME, organism-based, Macaca mulatta; conditions: in vivo
[15] = Drug uptake in iv dosed rhesus monkey hippocampus by PET imaging based analysis; assay type: ADME, organism-based, Macaca mulatta; conditions: in vivo
[16] = Drug uptake in iv dosed rhesus monkey striatum by PET imaging based analysis; assay type: ADME, organism-based, Macaca mulatta; conditions: in vivo
[17] = Drug uptake in iv dosed rhesus monkey pons by PET imaging based analysis; assay type: ADME, organism-based, Macaca mulatta; conditions: in vivo
[18] = Drug uptake in iv dosed rhesus monkey cortex measured after 60 mins by PET imaging based analysis; assay type: ADME, organism-based, Macaca mulatta; conditions: in vivo, 1 h
[19] = Drug uptake in iv dosed rhesus monkey cerebellum measured after 60 mins by PET imaging based analysis; assay type: ADME, organism-based, Macaca mulatta; conditions: in vivo, 1 h
[20] = Drug uptake in iv dosed rhesus monkey hippocampus measured after 60 mins by PET imaging based analysis; assay type: ADME, organism-based, Macaca mulatta; conditions: in vivo, 1 h
[21] = Drug uptake in iv dosed rhesus monkey striatum measured after 60 mins by PET imaging based analysis; assay type: ADME, organism-based, Macaca mulatta; conditions: in vivo, 1 h
[22] = Drug uptake in iv dosed CD-1 mouse heart measured after 60 mins by Ex vivo whole body biodistribution based analysis; assay type: ADME, organism-based; conditions: 1 h
[23] = Drug uptake in iv dosed CD-1 mouse lung measured after 60 mins by Ex vivo whole body biodistribution based analysis; assay type: ADME, organism-based; conditions: 1 h
[24] = Drug uptake in iv dosed CD-1 mouse pancreas measured after 60 mins by Ex vivo whole body biodistribution based analysis; assay type: ADME, organism-based; conditions: 1 h
[25] = Drug uptake in iv dosed CD-1 mouse kidney measured after 60 mins by Ex vivo whole body biodistribution based analysis; assay type: ADME, organism-based; conditions: 1 h
[26] = Drug uptake in iv dosed CD-1 mouse liver measured after 60 mins by Ex vivo whole body biodistribution based analysis; assay type: ADME, organism-based; conditions: 1 h
[27] = Metabolic stability of the compound in iv dosed Sprague-Dawley rat brain assessed as parent compound remaining measured after 30 mins by radio-HPLC analysis; assay type: ADME, organism-based; conditions: read-out: Stability
[28] = Metabolic stability of the compound in iv dosed Sprague-Dawley rat plasma assessed as parent compound remaining measured after 30 mins by radio-HPLC analysis; assay type: ADME, organism-based; conditions: read-out: Stability
[29] = Metabolic stability of the compound in iv dosed Sprague-Dawley rat brain assessed as parent compound remaining measured after 60 mins by radio-HPLC analysis; assay type: ADME, organism-based; conditions: read-out: Stability
[30] = Metabolic stability of the compound in iv dosed Sprague-Dawley rat plasma assessed as parent compound remaining measured after 60 mins by radio-HPLC analysis; assay type: ADME, organism-based; conditions: read-out: Stability
[31] = Drug uptake in iv dosed rhesus monkey pons measured after 60 mins by PET imaging based analysis; assay type: ADME, organism-based, Macaca mulatta; conditions: in vivo, 1 h
[32] = Drug uptake in iv dosed CD-1 mouse small intestine measured after 60 mins by Ex vivo whole body biodistribution based analysis; assay type: ADME, organism-based; conditions: 1 h

**Q.** With `O=C(c1ccc2c(ccn2-c2ccc(F)cc2)c1)N1CC(N2CCN(C(=O)c3nccs3)CC2)C1` as the molecule, how does the inhibition [1] read?
**A.** The inhibition was “inactive”.

**Q.** What about the inhibition [2] of the same molecule?
**A.** The inhibition was “inactive”.

**Q.** And the inhibition [3]?
**A.** The inhibition was “inactive”.

**Q.** What about the inhibition [4] of the same molecule?
**A.** The inhibition was “inactive”.

**Q.** And the logD [5]?
**A.** Its logD is 3.28.

**Q.** For `O=C(c1ccc2c(ccn2-c2ccc([18F])cc2)c1)N1CC(N2CCN(C(=O)c3nccs3)CC2)C1`, which SUVmax [6] is on record?
**A.** The SUVmax was 0.8.

**Q.** What about the Drug uptake [7] of the same molecule?
**A.** Its Drug uptake is “Active”.

**Q.** And the Drug uptake [8]?
**A.** The Drug uptake was “Active”.

**Q.** And the Drug uptake [9]?
**A.** The Drug uptake was “Active”.

**Q.** And the Drug uptake [10]?
**A.** Its Drug uptake is “Active”.

**Q.** And the Drug uptake [11]?
**A.** Its Drug uptake is “Not Active”.

**Q.** And the SUVmax [12]?
**A.** The SUVmax was 0.9.

**Q.** And the Drug uptake [13]?
**A.** Its Drug uptake is “Active”.

**Q.** And the Drug uptake [14]?
**A.** The Drug uptake was “Active”.

**Q.** What about the Drug uptake [15] of the same molecule?
**A.** Its Drug uptake is “Active”.

**Q.** What about the Drug uptake [16] of the same molecule?
**A.** Its Drug uptake is “Active”.

**Q.** And the Drug uptake [17]?
**A.** Its Drug uptake is “Active”.

**Q.** What about the Drug uptake [18] of the same molecule?
**A.** The Drug uptake was “Not Active”.

**Q.** And the Drug uptake [19]?
**A.** Its Drug uptake is “Not Active”.

**Q.** And the Drug uptake [20]?
**A.** Its Drug uptake is “Not Active”.

**Q.** What about the Drug uptake [21] of the same molecule?
**A.** The Drug uptake was “Not Active”.

**Q.** And the Drug uptake [22]?
**A.** The Drug uptake was “Not Active”.

**Q.** And the Drug uptake [23]?
**A.** Its Drug uptake is “Not Active”.

**Q.** And the Drug uptake [24]?
**A.** The Drug uptake was “Not Active”.

**Q.** What about the Drug uptake [25] of the same molecule?
**A.** Its Drug uptake is “Not Active”.

**Q.** What about the Drug uptake [26] of the same molecule?
**A.** Its Drug uptake is “Active”.

**Q.** What about the remaining at 0.5 h [27] of the same molecule?
**A.** Its remaining at 0.5 h is 97%.

**Q.** What about the remaining at 0.5 h [28] of the same molecule?
**A.** Its remaining at 0.5 h is 81%.

**Q.** What about the remaining at 1 h [29] of the same molecule?
**A.** The remaining at 1 h was 94%.

**Q.** What about the remaining at 1 h [30] of the same molecule?
**A.** Its remaining at 1 h is 56%.

**Q.** What about the Drug uptake [31] of the same molecule?
**A.** Its Drug uptake is “Not Active”.

**Q.** And the Drug uptake [32]?
**A.** The Drug uptake was “Active”.
